Measurements reported in paper PMC4853715, “Design, Synthesis and Antitumor Activity of Novel link-bridge and B-Ring Modified Combretastatin A-4 (CA-4) Analogues as Potent Antitubulin Agents” (Scientific Reports, 2016).

Key:
SSC-4 = experiment: MTT assay, antiproliferative activity; assay type: cell-based; settings: Homo sapiens; SSC-4, MTT, 48 h, ± SD
Experimental: (§1) The in vitro anticancer activities of the prepared compounds against HepG2, Hela, MCF-7, A549, HT-29 and SSC-4 cell lines were evaluated as described in the literature. Target tumor cells were grown to log phase in DMEM medium supplemented with 10% fetal bovine serum. After reaching a dilution of 1 × 10^5 cells Ml^−1 with the medium, 100 μL of the obtained cell suspension was added to each well of 96-well culture plates. Subsequently, incubation was performed at 37 °C in 5% CO2 atmosphere for 12 h before the cytotoxicity assessment. Tested samples at preset concentrations were added to 6 wells with CA-4 being employed as a positive reference. After 48 h exposure period, 25 μL of PBS containing 2.5 mg mL^−1 of MTT (Sigma, USA) was added to each well. After 4 h, the medium was replaced by 150 μL DMSO to dissolve the purple formazan crystals produced. The absorbance at 570 nm of each well was measured with Synergy™ 2 Multi-Mode Microplate Reader. Cell viability (%) was calculated using the following equation: cell viability (%) = (Atreatment/Acontrol) × 100%. The data represented the mean of three independent experiments in triplicate and were expressed as means ± SD.

MCF-7 = experiment: MTT assay, antiproliferative activity; assay type: cell-based; settings: Homo sapiens, MCF7; MCF-7, MTT, 48 h, ± SD
Experimental: as §1

Hela = experiment: MTT assay, antiproliferative activity; assay type: cell-based; settings: Homo sapiens, 48 h, ± SD
Experimental: as §1

HT-29 = experiment: MTT assay, antiproliferative activity; assay type: cell-based; settings: Homo sapiens; HT-29, MTT, 48 h, ± SD
Experimental: as §1

HepG2 = experiment: MTT assay, antiproliferative activity; assay type: cell-based; settings: Homo sapiens, 48 h, ± SD
Experimental: as §1

A549 = experiment: MTT assay, antiproliferative activity; assay type: cell-based; settings: Homo sapiens, 48 h, ± SD
Experimental: as §1

Bovine brain tubulin = experiment: Effects on tubulin polymerization (turbidimetric assembly); assay type: biochemical; settings: 10 μM tubulin, 30 °C, 20 min incubation; read-out: Tubulin inhibition IC50
Experimental: Bovine brain tubulin was purified as described previously. To evaluate the effect of the compounds on tubulin assembly in vitro, compounds of varying concentrations were preincubated with 10 μM tubulin in glutamate buffer at 30 °C and then cooled to 0 °C. After addition of GTP, the mixtures were transferred to 0 °C cuvettes in a recording BioTek Synergy 4 multifunction microplate spectrophotometer and warmed up to 30 °C and the assembly of tubulin was observed turbidimetrically (TU660, USA).

A549 xenograft tumor = experiment: In vivo anti-tumor activity, A549 xenograft; design: species or system BALB/c nude mice; settings: CA-4P group, 30 mg/kg or 15 mg/kg
Experimental: Mice were subcutaneously inoculated with injections of 5.0 × 10^6 cells/nude mice. After 12–14 days, tumor sizes were determined using micrometer calipers, and then nude mice with similar tumor volume (~100 mm^3, eliminate mice with tumors that are too large or too small) were randomly divided them into four groups (with six nude mice/group). […] Both drugs, as well as the vehicle control, were administered every other day for the entire period of observation.
Male BALB/c nude mice, five weeks old and weighing 18–22 g, were supplied by Shanghai Laboratory Animal Limited Company. The mice were raised in air-conditioned rooms under controlled lighting (12 h light-dark cycle at 24 °C) and were fed with standard laboratory food and water ad libitum. Before injection into the mice, the A549 cells were harvested by trypsinization and washed three times with cold serum-free medium and then injected in a total volume of 0.1 mL using a 1 mL latex-free syringe (BD) within 30 min of harvest. Mice were inoculated subcutaneously with A549 cells (5.0 × 10^6) on their shoulders. […] The control group received 0.9% normal saline. Tumor size was measured once every 2 days in two per-pendicular dimensions with Vernier calipers and converted to tumor volume (TV) using the formula: (ab^2)/2, where a and b refer to the longer and shorter dimensions, respectively. The body weight of the animals was measured twice a week to assess toxicity of the treatments at the same time as the tumor dimension measurement and the mortality was monitored daily. After the treatments for eight weeks, the animals were euthanized by cervical dislocation. This study conformed to the Guide for the Care and Use of Laboratory Animals as published by the US National Institutes of Health and was approved by the Institutional Ethics Review Board of Nanjing University.

[1] = test system: interphase microtubules of A549 cells; experiment: Confocal microscopy assay of microtubule morphology; assay type: cell-based, human; settings: A549, 1.0 μM, 48 h
Experimental: After incubating for 48 h, A549 cells were washed with PBS for three times and fixed with 4% paraformaldehyde for 20 min, permeabilized with cold methanol for another 10 min. After that, the cells were blocked with 5% BSA for 1 h. Subsequently, the cells were washed with PBS, and incubated with anti-tubulin antibody in 3% BSA (1:200 Cytoskeleton, Inc.) overnight at 4 °C. After being washed with PBS for three times, each cover slip was added 200 μL of Cy3-labeled goat anti-mouse IgG (H + L) in 3% BSA (1:500, Cytoskeleton, Inc.) and incubated for 1 h at room temperature. At last, A549 cells was stained with 200 μL of DAPI for 5 min and observed under an confocal microscope (Olympus, USA).

[2] = target: colchicine-binding site of tubulin; experiment: [3H] Colchicine-tubulin binding assay; settings: 37 °C, 60 min; read-out: IC50, competition with [3H]colchicine binding to tubulin
Experimental: One micromolar radiolabeled colchicine [ring C, Methoxy-^3H] (Perkin-Elmer), 1% DMSO and various concentrations of test compounds in 50 μL G-PEM buffer containing 80 mmol/L PIPES (pH 6.8), 1 mmol/L EGTA, 1 mmol/L MgCl2 and 1 mmol/L GTP, and 5% glycerol were incubated with […] (>99% pure,; Cytoskeleton, Inc.; 0.2 mg/mL) at 37 °C for 60 min. The binding solutions were filtered through a stack of 2 DEAE-cellulose filters and washed twice. The radioactivity in the filtrates was determined by liquid scintillation spectrometry (Perkin-Elmer Wallac). Nonlinear regression was used to analyze the data using GraphPad Prism.

[3] = test system: Tubulin isolated from porcine brain tissue; experiment: Tubulin polymerization assay (kit, absorbance 340 nm); assay type: biochemical; settings: 8.0 μM, 37 °C
Experimental: Tubulin polymerization was determined with the tubulin polymerization assay kit (Cytoskeleton, Denver, CO which was purchased from Cytoskeleton, Beyotime, China. Tubulin isolated from porcine brain tissue was used in this commercial kit.) It is based on the principal that light is scattered by microtubules to an extent that is proportional to the concentration of the microtubule polymer. Compounds that interact with tubulin will alter the polymerization of tubulin, and this can be detected using a spectrophotometer. Tubulin polymerization dynamics was monitored through measuring the change of absorbance at 340 nm every 2 min for 30 min at 37 °C on a spectrophotometer (Perkin-Elmer).

[4] = test system: polymerized tubulin in A549 cells; experiment: Flow cytometry of extracellular polymerized tubulin; assay type: cell-based, human; settings: A549, 1 μM, 48 h
Experimental: Then, cells were harvested, washed once with PBS and blocked with 1% BSA for 30 min on ice, then were centrifuged (2800 rpm at 4 °C for 5 minutes) to remove supernatant. After that, cells were incubated with β-tubulin antibody (AT819, Beyotime, China) for 1 h on ice and were centrifuged (2800 rpm at 4 °C for 5 minutes) to remove supernatant. Next, cells were incubated with CY5.5-linked anti-rabbit IgG (A7016, Beyotime, China) on ice for 1 h and were also centrifuged (2800 rpm at 4 °C for 5 minutes) to remove supernatant. Finally, cells were then resuspended in PBS and the expression level of polymerized tubulin was analysed by flow cytometry (BD, USA).

| Structure (SMILES) | IC50 (SSC-4) [µM] | IC50 (MCF-7) [µM] | IC50 (Hela) [µM] | IC50 (HT-29) [µM] | IC50 (HepG2) [µM] | IC50 (A549) [µM] | IC50 (Bovine brain tubulin) [µM] | tumor growth reduction versus vehicle at end of observation (A549 xenograft tumor; every other day) [%] | average weight of the excised tumors (A549 xenograft tumor; control group 1.802 g) [g] | microtubule morphology [1] | IC50 [2] [µM] | tubulin polymerization (in words) [3] | microtubule assembly (polymerized tubulin, curve shift versus control) [4] |
| --- | --- | --- | --- | --- | --- | --- | --- | --- | --- | --- | --- | --- | --- |
| CCCn1cc(C(=O)Nc2cc(OC)c(OC)c(OC)c2)c2ccccc21 [Compound 18] | 90.3 ± 6.76 | 59.8 ± 3.43 | 77.4 ± 5.78 | 82.2 ± 3.7 | 62.8 ± 3.65 | 40.2 ± 4.41 | > 200 | – | – | – | – | – | – |
| CCCn1cc(C(=O)N/N=C/c2cc(OC)c(OC)c(OC)c2)c2ccccc21 [Compound 6] | 79.9 ± 2.78 | 28.9 ± 3.23 | 56.9 ± 4.89 | 70 ± 3.76 | 39 ± 3.23 | 9.89 ± 1.16 | 55.7 | – | – | – | – | – | – |
| COc1cc(C(=O)/C=C\c2cn(Cc3ccccc3)c3ccccc23)cc(OC)c1OC [Compound 13] | 25.7 ± 2.78 | 4.54 ± 0.96 | 4.78 ± 1.43 | 34.7 ± 5.34 | 2.98 ± 0.34 | 2.78 ± 0.92 | 24.8 | – | – | – | – | – | – |
| COc1ccc(/C=C\c2cc(OC)c(OC)c(OC)c2)cc1OP(=O)(O)O [CA-4P, fosbretabulin, reference compound] | – | – | – | – | – | – | – | 39 | 1.102 | – | – | – | – |
| COc1cc(C(=O)/C=C\c2cn(C)c3ccccc23)cc(OC)c1OC [Compound 10] | 43.2 ± 3.3 | 29.9 ± 3.21 | 23.9 ± 5.89 | 44.5 ± 2.87 | 19.6 ± 1.98 | 12.1 ± 1.2 | 49.9 | – | – | – | – | – | – |
| COc1cc(NC(=O)c2cn(Cc3ccccc3)c3ccccc23)cc(OC)c1OC [Compound 19] | 29.5 ± 3.42 | 3.61 ± 0.46 | 5.74 ± 1.06 | 32.7 ± 3.31 | 3.68 ± 0.36 | 2.69 ± 0.4 | 19.9 | – | – | – | – | – | – |
| COc1cc(/C=N/NC(=O)c2cn(C)c3ccccc23)cc(OC)c1OC [Compound 4] | 43.2 ± 3.98 | 3.21 ± 0.76 | 8.45 ± 1.87 | 26.7 ± 1.89 | 2.43 ± 0.23 | 0.29 ± 0.04 | 14.8 | – | – | – | – | – | – |
| COc1cc2c(c(OC)c1OC)-c1ccc(OC)c(=O)cc1[C@@H](NC(C)=O)CC2 [colchicine] | – | – | – | – | – | – | – | – | – | depolymerization and solubilization | – | – | – |
| CCn1cc(C(=O)Nc2cc(OC)c(OC)c(OC)c2)c2ccccc21 [Compound 17] | 47.2 ± 4.33 | 48.3 ± 6.58 | 35.7 ± 2.34 | 39.4 ± 3.45 | 28.3 ± 3.33 | 26.5 ± 6.2 | > 200 | – | – | – | – | – | – |
| CCn1cc(C(=O)N/N=C/c2cc(OC)c(OC)c(OC)c2)c2ccccc21 [Compound 5] | 55.2 ± 3.48 | 14.2 ± 1.11 | 23.8 ± 2.23 | 56.8 ± 2.1 | 10.6 ± 1.98 | 1.18 ± 0.11 | 23.4 | – | – | – | – | – | – |
| CC(=O)O[C@H]1C(=O)[C@@]2(C)[C@H]([C@H](OC(=O)c3ccccc3)[C@]3(O)C[C@H](OC(=O)[C@H](O)[C@@H](NC(=O)c4ccccc4)c4ccccc4)C(C)=C1C3(C)C)[C@]1(OC(C)=O)CO[C@@H]1C[C@@H]2O [paclitaxel] | – | – | – | – | – | – | – | – | – | substantial stabilization of microtubules | – | – | – |
| COc1ccc(/C=C\c2cc(OC)c(OC)c(OC)c2)cc1O [CA-4, combretastatin A-4] | 27.2 ± 1.78 | 0.81 ± 0.11 | 5.52 ± 0.82 | 15.6 ± 0.06 | 0.46 ± 0.07 | 0.13 ± 0.02 | […] | – | – | disorganized interphase microtubules | 4.96 | nearly completely blocked | […] |
| CCCn1cc(/C=C\C(=O)c2cc(OC)c(OC)c(OC)c2)c2ccccc21 [Compound 12] | 90 ± 9.98 | 69.8 ± 5.43 | 67.9 ± 4.47 | 78.9 ± 3.51 | 53.9 ± 2.81 | 37.9 ± 3.61 | > 200 | – | – | – | – | – | – |
| CCn1cc(/C=C\C(=O)c2cc(OC)c(OC)c(OC)c2)c2ccccc21 [Compound 11] | 57.8 ± 4.67 | 45.5 ± 5.67 | 34.2 ± 1.19 | 49.9 ± 6.98 | 27.8 ± 2.23 | 27.9 ± 6.71 | 125 | – | – | – | – | – | – |
| COc1cc(NC(=O)c2cn(C)c3ccccc23)cc(OC)c1OC [Compound 16] | 45.5 ± 2.6 | 27.4 ± 2.41 | 26.8 ± 6.81 | 46.4 ± 2.83 | 17.5 ± 1.46 | 17.6 ± 1.9 | 46.8 | – | – | – | – | – | – |
